This is an account of results in patent US20160002174A1, “CXCR4 Antagonists for the Treatment of Medical Disorders” (Emory University, priority 2005, published 2016).

Usually melting point stands for the temperature, or range, at which the solid turns liquid. Broadly, the IC50 is the point on the concentration scale where inhibition reaches its midpoint.

Bridge positions count the residues as written; N and C are the ends. Square brackets hold non-standard residues; d marks the D form. Peptide text beside a SMILES is read from it. 2Nal = N[C@@H](Cc1ccc2ccccc2c1)C(=O)O; Cit = NC(=O)NCCC[C@H](N)C(=O)O

One data set has as its system SHIV. The data set can be described thus: SHIV infection, p27 antigen capture. In kind it is cell-based. The following applies: 0.1, 1, 10 or 100 nM drug prior to infection; 2 to 5 days. On the procedure: The effect of the test compounds on HIV infection in model cells was analyzed by p27 antigen capture using SHIV infected cells. Cells were incubated with 0, 0.1, 1, 10 or 100 nM drug prior to infection with SHIV. Viral titer was measured after infection by analyzing levels of p27 antigen. […] The inhibition was measurable at 2 days, and continued to 5 day incubations.
Regarding `c1cnc(NCc2ccc(CNc3ncccn3)cc2)nc1` [WZ40], the “inhibition of SHIV infection (p27 antigen)” value is on record as “inhibited SHIV infection at all concentrations tested”.

Regarding `OCc1ccc(CNc2ncccn2)cc1` [WZ41], the “inhibition of SHIV infection (p27 antigen)” value is “inhibited SHIV infection at all concentrations tested”.

System in another data set: not given
Experiment: not given
Conditions: not given
In the case of `N=C(N)NCc1ccc(CNC(=N)N)cc1` [WZ5S], the melting point was 278 to 281 °C (dec.).

The compound `c1ccc(NCCNCc2ccc(CNCCNc3ccccc3)cc2)cc1` [WZ8] came in with a melting point of 42 to 43 °C.

The compound `c1ccc(NCc2ccc(CNc3ccccc3)cc2)cc1` [WZ13] displayed a melting point of 126 to 127 °C.

As to `O=C(Nc1ccccc1)c1cc(C(=O)Nc2ccccc2)cc(C(=O)Nc2ccccc2)c1` [WZ20], the melting point was 318 to 320 °C.

System in a further data set: not listed separately
As to the kind of experiment: Half life of the compounds in mice. Type of data set: in vivo.
Conditions: not given
As to the method:
A pharmacokinetic study of a novel anti-HIF-1α small molecule was performed. A stably integrated hypoxia-reporter system of glioma cells transfected with the hypoxia-reporting plasmid (described above) was utilized. A natural product-like small molecule library of 10,000 compounds was screened and the “best hit” was identified. HPLC methodology was developed for quantitatively detecting KCN-1 in plasma and other biological samples. For the pharmacokinetic study, KCN-1 (100 mg/kg) was dissolved in DMSO and administered intravenously to mice. Plasma samples were collected at given time Points (0.25, 0.5, 1, 2, 4 and 8 h) and KCN-1 levels were quantified by HPLC. The HPLC system consisted of a Varian Prostar gradient pump, a Prostar autosampler and a Prostar photo diode array detector. The column was a Luna 5μ C18 column (4.6 mm×250 mm, Phenomenex). The retention time of KCN1 and the internal standard were 8.7 and 17.7 min, respectively (FIG. 13). The in vivo stability of WZZL811S and WZ40 were measured after systemic administration of compounds over two hours (FIG. 17).
The half life of the compounds in mice where determined are also shown.
Consider `O=[N+]([O-])c1cccc(NCc2ccc(CNc3cccc([N+](=O)[O-])c3)cc2)c1` [MSX-203], for which the “t½ (min) in mice” value is “infinite”.

Still in this data set, the particulars now being: mouse, in vivo, read-out: t½ (min) in mice.
Consider `Cc1c(C)c(CNc2ccccc2)c(C)c(C)c1CNc1ccccc1` [MSX-172], for which the half-life is under 5 min.

On to `Clc1nc(Cl)nc(NCc2ccc(CNc3nc(Cl)nc(Cl)n3)cc2)n1` [MSX-190], for which the half-life was under 5 min.

Turning to `Fc1nccc(NCc2ccc(CNc3ccnc(F)n3)cc2)n1` [MSX-193], the half-life turned out to be 30 min.

For the compound `Fc1ccc(NCc2ccc(CNc3ncccn3)cc2)nc1` [MSX-197], the half-life is 16.5 min.

Regarding `O=[N+]([O-])c1ccccc1NCc1ccc(CO)cc1` [MSX-202], the half-life is under 5 min.

Take `FCc1ccc(CNc2ncccn2)cc1` [MSX-207]: the half-life came out at 11 min.

Regarding `Fc1cccc(NCc2ccc(CNc3ncccn3)cc2)n1` [MSX-222], the half-life turned out to be 15 min.

Another data set deals with CXCR4 (Homo sapiens, UniProt P61073). The data set can be described thus: Competition assays: test compounds binding to CXCR4 compared to SDF-1 (Table 2).
CXCR4, sequence (P61073 whole entry): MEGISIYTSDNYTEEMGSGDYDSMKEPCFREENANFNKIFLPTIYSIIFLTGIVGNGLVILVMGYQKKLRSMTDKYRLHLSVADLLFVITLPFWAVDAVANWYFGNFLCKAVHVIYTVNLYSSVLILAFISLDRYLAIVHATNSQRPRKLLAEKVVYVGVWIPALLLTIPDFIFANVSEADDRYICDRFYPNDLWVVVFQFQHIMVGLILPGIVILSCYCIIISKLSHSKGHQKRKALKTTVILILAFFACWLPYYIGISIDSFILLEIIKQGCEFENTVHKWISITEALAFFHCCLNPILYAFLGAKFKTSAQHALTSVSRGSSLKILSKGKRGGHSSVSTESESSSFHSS
Conditions: not given
`O=[N+]([O-])c1ccc(NCc2ccc(CNc3ccc([N+](=O)[O-])cc3)cc2)cc1` [MSX-178]: the IC50 was over 1000 nM.

`O=[N+]([O-])c1cccc(NCc2ccc(CNc3cccc([N+](=O)[O-])c3)cc2)c1` [MSX-203] displayed a half-inhibitory concentration (IC50) of 1 nM.

The data set is the same for the next values; noted with them: competition with SDF-1 for binding to CXCR4; read-out: IC50 (nM) vs SDF-1.
In the case of `COc1ccc(NCc2ccc(CNc3ccc(OC)cc3)cc2)cc1` [MSX-125], the IC50 was over 10 nM.

As for `Cc1cc(CN)c(C)cc1CN` [MSX-126], the IC50 is over 1000 nM.

`Oc1cc(CN2CCOCC2)c(O)cc1CN1CCOCC1` [MSX-127]: the IC50 is over 1000 nM.

As for `c1ccc(-c2nc(-c3ccc(-c4nc(-c5ccccc5)c(-c5ccccc5)[nH]4)cc3)[nH]c2-c2ccccc2)cc1` [MSX-130], the IC50 was over 1000 nM.

Consider `c1cc(CNC2=NCCN2)ccc1CNC1=NCCN1` [MSX-133], for which the IC50 was over 1000 nM.

Turning to `COc1cccc(NC(=O)c2ccc(C(=O)Nc3cccc(OC)c3)cc2)c1` [MSX-137], the IC50 was over 1000 nM.

In the case of `FC(F)(F)c1cccc(NCc2ccc(CNc3cccc(C(F)(F)F)c3)cc2)c1` [MSX-138], the IC50 is over 1000 nM.

On to `CN(C)Cc1ccc(CN(C)C)cc1` [MSX-141], for which the IC50 was over 1000 nM.

As for `Fc1ccc(NCc2ccc(CNc3ccc(F)cc3)cc2)cc1` [MSX-142], the IC50 is over 1000 nM.

In the case of `CN(C)CCNCc1ccc(CNCCN(C)C)cc1` [MSX-156s], the half-maximal inhibitory concentration (IC50) is over 1000 nM.

Consider `c1ccc(NCCNCc2ccc(CNCCNc3ccccc3)cc2)cc1` [MSX-158], for which the IC50 is over 1000 nM.

`c1cc(CNCc2ccc(CNCc3ccncc3)cc2)ccn1` [MSX-159s]: the IC50 was over 1000 nM.

Regarding `c1cncc(CNCc2ccc(CNCc3cccnc3)cc2)c1` [MSX-160], the half-inhibitory concentration (IC50) is over 1000 nM.

Turning to `c1ccc(CNCc2ccc(CNCc3ccccn3)cc2)nc1` [MSX-161s], the IC50 was over 1000 nM.

`CN(Cc1ccc(CN(C)c2ccccc2)cc1)c1ccccc1` [MSX-164]: the IC50 is over 100 nM.

Turning to `c1ccc(NCc2cc(CNc3ccccc3)cc(CNc3ccccc3)c2)cc1` [MSX-166], the IC50 was over 1000 nM.

As to `O=C(Nc1ccccc1)c1cc(CNc2ccccc2)cc(CNc2ccccc2)c1` [MSX-167], the IC50 was over 100 nM.

On to `c1ccc(NCCc2ccc(CCNc3ccccc3)cc2)cc1` [MSX-170], for which the IC50 is over 100 nM.

Consider `c1ccc(NC[C@H]2CC[C@@H](CNc3ccccc3)CC2)cc1` [MSX-171], for which the IC50 is over 1000 nM.

For `c1ccc(NCc2c3ccccc3c(CNc3ccccc3)c3ccccc23)cc1` [MSX-174], the IC50 was over 100 nM.

Regarding `c1ccc(NCc2ccccc2CNc2ccccc2)cc1` [MSX-176], the IC50 is over 100 nM.

As to `N#Cc1ccc(NCc2ccc(CNc3ccc(C#N)cc3)cc2)cc1` [MSX-177], the IC50 was over 1000 nM.

With `Oc1ccc(NCc2ccc(CNc3ccc(O)cc3)cc2)cc1` [MSX-179], the IC50 was over 1000 nM.

On to `Fc1cccc(NCc2ccc(CNc3cccc(F)c3)cc2)c1` [MSX-184], for which the IC50 is over 100 nM.

In the case of `Fc1ccc(NCc2ccc(CNc3ccc(F)cn3)cc2)nc1` [MSX-185], the IC50 is under 100 nM.

For the compound `OCc1ccc(CNc2ccc(F)cn2)cc1` [MSX-186], the IC50 is over 1000 nM.

As to `[O-][n+]1cccnc1NCc1ccc(CNc2nccc[n+]2[O-])cc1` [MSX-189], the concentration for half-maximal inhibition (IC50) was over 1000 nM.

For the compound `Fc1cnc(NCc2ccc(CNc3ncc(F)c(Cl)n3)cc2)nc1Cl` [MSX-192], the 50% inhibitory concentration (IC50) was 1 nM.

For `Fc1nccc(NCc2ccc(CNc3ccnc(F)n3)cc2)n1` [MSX-193], the IC50 was found to be 1 nM.

As for `Fc1ccc(NCc2ccc(CNc3ncccn3)cc2)nc1` [MSX-197], the IC50 amounted to 1 nM.

Take `c1ccc(NCc2ccc(CNc3ncccn3)cc2)nc1` [MSX-198]: the IC50 was under 100 nM.

As to `COc1nc(NCc2ccc(CNc3ncc(F)c(OC)n3)cc2)ncc1F` [MSX-201], the IC50 amounted to 1 nM.

Regarding `O=[N+]([O-])c1ccccc1NCc1ccc(CO)cc1` [MSX-202], the IC50 was found to be 1 nM.

With `FCc1ccc(CNc2ncccn2)cc1` [MSX-207], the IC50 turned out to be 1 nM.

Regarding `c1ccc(OCc2ccc(COc3ccccn3)cc2)nc1` [MSX-213], the IC50 is over 1000 nM.

Turning to `Clc1cccc(NCc2ccc(CNc3ncccn3)cc2)n1` [MSX-221], the IC50 came out at 1 nM.

Regarding `N=C(N)NCCC[C@H](NC(=O)[C@@H]1CSSC[C@H](NC(=O)[C@H](Cc2ccc3ccccc3c2)NC(=O)[C@H](CCCNC(=N)N)NC(=O)[C@@H](N)CCCNC(=N)N)C(=O)N[C@@H](Cc2ccc(O)cc2)C(=O)N[C@@H](CCCNC(N)=O)C(=O)N[C@@H](CCCCN)C(=O)N[C@H](CCCCN)C(=O)N2CCC[C@H]2C(=O)N[C@@H](Cc2ccc(O)cc2)C(=O)N[C@@H](CCCNC(=N)N)C(=O)N[C@@H](CCCNC(N)=O)C(=O)N1)C(N)=O` [TN-14003, reference compound] (H-RR[2Nal]CY[Cit]K[dK]PYR[Cit]CR-NH2; disulfide 4-13 (inferred); N-terminus assumed), the IC50 is under 1 nM.
